The source of these data is patent US11229633B2, “Arimoclomol formulation” (Orphazyme A/S, priority 2014, dated 2022).

One series has as its target T1, human OAT1 (Homo sapiens, UniProt Q4U2R8).
T1 construct: expressed in transfected cells; host or cells: CHO (protocol UPT-CHO-OAT1-Tenofovir; control: parental CHO-K1)
T1 sequence (Q4U2R8 1-563): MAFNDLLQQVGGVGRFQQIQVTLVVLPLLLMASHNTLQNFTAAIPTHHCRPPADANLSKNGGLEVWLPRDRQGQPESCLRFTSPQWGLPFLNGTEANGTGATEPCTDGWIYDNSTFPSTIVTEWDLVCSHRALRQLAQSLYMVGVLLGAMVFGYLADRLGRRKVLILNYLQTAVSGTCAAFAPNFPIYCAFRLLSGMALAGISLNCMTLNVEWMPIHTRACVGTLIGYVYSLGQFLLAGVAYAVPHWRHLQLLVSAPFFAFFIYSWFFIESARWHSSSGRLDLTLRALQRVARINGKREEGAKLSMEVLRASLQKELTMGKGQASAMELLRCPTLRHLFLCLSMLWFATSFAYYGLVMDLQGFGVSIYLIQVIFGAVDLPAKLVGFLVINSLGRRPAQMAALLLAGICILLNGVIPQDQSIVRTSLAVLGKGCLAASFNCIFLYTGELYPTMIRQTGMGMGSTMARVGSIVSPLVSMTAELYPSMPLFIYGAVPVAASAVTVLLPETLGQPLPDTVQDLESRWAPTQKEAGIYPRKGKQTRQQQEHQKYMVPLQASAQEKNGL
The series is described as follows: Uptake transporter substrate feasibility assay, OAT1. Type of series: in vitro ADME. Set-up: key to Substrate: NIO: No interaction observed. How it is done: Uptake experiments were performed using CHO, MDCKII, or HEK293 cells stably expressing the respective uptake transporters.
Cells were cultured at 37±1° C. in an atmosphere of 95:5 air:CO2 as described in Table 4 and were plated onto standard 24-well tissue culture plates at 2×10^5 cells/well. The uptake of the TA was determined using cells overexpressing the respective uptake transporter and control cells, at two incubation time points (2 and 20 min) and at two concentrations (1 and 10 μM) of TA to determine whether or not the TA was actively taken up into the cells.
Before the experiment, the medium was removed and the cells were washed twice with 300 μl of HK buffer (pH 7.4) (prepared from Sigma chemicals). Cellular uptake of TA into the cells was measured by adding 300 μl of HK buffer containing TA and incubating them at 37±1° C. Reactions were quenched by removing the HK buffer containing the TA and the cells were washed twice with 300 μl of HK buffer. Cells were lysed by adding 300 μl of MeOH:H2O (2:1) and incubated for 20 minutes at 4±1° C. The amount of TA in the cell lysate was determined by LC-MS/MS. The amount of protein in each well was quantified using the BCA kit for protein determination (Sigma-Aldrich, St Louis, Mo., USA). Uptake of the probe substrate in control cells provided background activity values for all data points. Incubation without reference inhibitor (solvent only) provided 100% activity values. A reference inhibitor served as positive control for inhibition.
The fold accumulation value was defined as the ratio of uptake of TA or probe substrate into transfected and control cells:
[formula] UPTTRP: accumulated amount of TA or probe substrate in transfected cells normalized by protein content [pmol/mg protein] UPTCTL: accumulated amount of TA or probe substrate in control cells normalized by protein content [pmol/mg protein]
If the fold accumulation is >2 and can be inhibited by a known inhibitor of the transporter, the TA can be considered to be a substrate of the respective transporter.

Series [1] in a line: Kinetic solubility assessment in the assay buffers. The class given is physicochemical. The following applies: aqueous buffer, kinetic from dmso stock, 37° C.
Experimental: The aqueous solubility of the TA was determined by spectrophotometric measurements in combination with optical microscopy evaluation (5 and 10× magnification). […] The timeframe of the solubility assessment covered the incubation time of the corresponding in vitro experiment.
A stock solution and dilution series (5-step, 2-fold dilution series) of TA were prepared in water. Stock solutions were mixed with the appropriate assay buffers in a 96-wells plate and incubated for 10 minutes at 37° C. before the solutions were evaluated at 500 nm. […] Therefore, to be considered soluble at a given concentration, the background corrected absorbance of the TA solution must be less than 0.030 absorbance units (ΔA=Asolution−Ablank <0.030). The background corrected absorbance value for each solution was determined.

Structures are written as SMILES. Where only a bound is given, the exact number is not on record here.

As for `[O-][n+]1cccc(C(Cl)=NOCC(O)CN2CCCCC2)c1` (centres unmarked) [Arimoclomol, N-[2-hydroxy-3-(1-piperidinyl)-propoxy]-pyridine-1-oxide-3-carboximidoyl chloride], at human OAT1, the “Substrate of the transporter (in words)” value was “not a substrate”. Moreover, the Fold accumulation on human OAT1 (1 μM, 2 min) is 0.77; on human OAT1 (1 μM, 20 min), 0.75; on human OAT1 (10 μM, 2 min), 0.56; on human OAT1 (10 μM, 20 min), 0.73; on human OAT1 (1 and 10 μM, 2 and 20 min), under 2. In addition, at human OAT1 (Table 2), the Substrate entry was “NIO”. In series [1], this compound gave a solubility at 10 min of at least 300 µM.
